The values that follow come from US9718792B2, “Isoxazoline hydroxamic acid derivatives as LpxC inhibitors” (priority 2014, dated 2017).

One test has as its target P. aeruginosa LpxC (Pseudomonas aeruginosa (strain ATCC 15692 / DSM 22644 / CIP 104116 / JCM 14847 / LMG 12228 / 1C / PRS 101 / PAO1), UniProt P47205). Put plainly: P. aeruginosa LpxC Inhibition Assay. Type of test: biochemical. The settings on record: 1 nM P. aeruginosa LpxC, 2 μM substrate, LC-MS/MS; read-out: PA LpxC IC50. An excerpt:
The P. aeruginosa LpxC protein is produced according to the general method of Hyland et al (Journal of Bacteriology 1997 179, 2029-2037: Cloning, expression and purification of UDP-3-O-acyl-GIcNAc deacetylase from Pseudomonas aeruginosa: a metalloamidase of the lipid A biosynthesis pathway). The LC-MS/MS method for quantitation of LpxC product was developed using an Agilent 1200 Capillary HPLC system coupled to an Applied Biosystems MDS Sciex 4000QTRAP mass spectrometer. Both instruments are controlled using the Applied Biosystems MDS Sciex Analyst software. LpxC reaction product (UDP-3-O—(R-3-hydroxyacyl)-glucosamine) was produced by hydrolysis of LpxC substrate catalyzed by P.a. LpxC and purified using reversed phase chromatography on a Phenomenex Luna C18(2) 4.6×50 mm column. An LpxC product calibration curve was generated to evaluate the sensitivity and dynamic range of the LC-MS/MS method. Briefly, compounds are pre-incubated with 1 nM P. aeruginosa LpxC for 30 min. at room temperature. Reactions are initiated by the addition of 2 μM UDP-3-O—(R-3-hydroxydecanoyl)-GIcNAc. Reactions are conducted in a 384-well plate with a total volume of 50 μL in each well containing 50 mM Sodium phosphate pH 7.5, 0.005% Trition X-100 for 20 min at room temperature. After quenching with 1.8% HOAc (5 μL of a 20% HOAc added to each well), reaction mixtures are analyzed using the LC-MS/MS method and peak areas are transformed into product concentration using a LpxC product calibration curve. Total activity (0% inhibition control) is obtained from reactions with no inhibitors and 100% inhibition control is the background using quenched samples before reaction starts. For IC50 determinations, peak areas are converted to percent inhibition in Microsoft Excel. Percent inhibition values are plotted vs. log compound concentration using XLfit. Data is fit to the four-parameter logistic equation using the non-linear regression algorithm in XLfit to return the IC50 and hill slope values.

A further test deals with P. aeruginosa PAO1. Put plainly: Susceptibility Testing (MIC, broth microdilution). The format is cell-based, Pseudomonas aeruginosa. The note with it: P. aeruginosa PAO1, broth microdilution, 20 hours; for MIC: Pseudomonas aeruginosa, PAO1, 20 h, read-out: PAO1 MIC. On the procedure:
Bacterial isolates were cultivated from −70° C. frozen stocks by two consecutive overnight passages at 35° C. in ambient air on 5% blood agar (Remel, Lenexa, Kans.). Quality control and P. aeruginosa ATCC 27853) is from the American Type Culture Collection (ATCC; Rockville, Md.) and PAO1 was received from Dr. K. Poole.
Minimal Inhibitory Concentrations (MICs) were determined by the broth microdilution method in accordance with Clinical and Laboratories Institute (CLSI) guidelines. In brief, fresh bacterial overnight cultures were resuspended in sterile saline, adjusted to a 0.5 McFarland turbidity standard and then diluted […] in cation adjusted Mueller-Hinton Broth II (MHB; Remel BBL) to yield a final inoculum of approximately 5×10^5 colony-forming units (CFU)/mL. Two-fold serial dilutions of compounds were prepared in 100% dimethyl sulfoxide (DMSO) at 100-fold the highest final assay concentration; the resulting dilution series of compounds were diluted 1:10 with sterile water. Ten μl of the drug dilution series in 10% DMSO was transferred to microtiter wells and 90 μl of bacterial suspension was inoculated into the wells. All inoculated microdilution trays were incubated in ambient air at […] for 20 hours. Following incubation, assay plates were read in a microtiter plate reader at 600 nm and visually inspected to confirm the MIC endpoint well with the OD value. The lowest concentration of the compound that prevented visible growth was recorded as the MIC. Performance of the assay was monitored by testing ciprofloxacin against laboratory quality control strains in accordance with guidelines of the CLSI.
A general note: In broth dilution the organism is exposed to a series of concentrations in liquid medium.

pIC50: −log10 of the molar value. Values after ≈ are worked out from the molar mass of the structure shown.

In the case of `C[C@@](C[C@H]1CC(c2ccc(-c3ccc(CN4CCOCC4)cc3)cc2)=NO1)(C(=O)NO)S(C)(=O)=O` [Compound 47, (R)—N-hydroxy-2-methyl-2-(methylsulfonyl)-3-((R)-3-(4′-(morpholinomethyl)-[1,1′-biphenyl]-4-yl)-4,5-dihydroisoxazol-5-yl)], at P. aeruginosa LpxC, the negative logarithm of the IC50 (pIC50) is 9.22. For the same molecule, the MIC with P. aeruginosa PAO1 was found to be 0.35 mg/L (≈ 0.698 µM).

Take `COCCOc1ccc(-c2ccc(C3=NO[C@@H](C[C@](C)(C(=O)NO)S(C)(=O)=O)C3)cc2)cc1` [Compound 48, (R)—N-hydroxy-3-((R)-3-(4′-(2-methoxyethoxy)-[1,1′-biphenyl]-4-yl)-4,5-dihydroisoxazol-5-yl)-2-methyl-2-(methylsulfonyl)propanamide]: the negative-log IC50 (pIC50) at P. aeruginosa LpxC is 9.00. Also, in the test with P. aeruginosa PAO1, the MIC came to 0.25 mg/L (≈ 0.525 µM).

As for `C[C@@H](O)c1ccc(-c2ccc(C3=NO[C@@H](C[C@](C)(C(=O)NO)S(C)(=O)=O)C3)cc2)cc1` [Compound 49, (R)—N-hydroxy-3-((R)-3-(4′-((R)-1-hydroxyethyl)-[1,1′-biphenyl]-4-yl)-4,5-dihydroisoxazol-5-yl)-2-methyl-2-(methylsulfonyl)], the pIC50 at P. aeruginosa LpxC is 9.00. Also, the MIC in the test with P. aeruginosa PAO1 was determined as 0.25 mg/L (≈ 0.56 µM).

Take `C[C@@](C[C@H]1CC(c2ccc(-c3ccc(OCCO)cc3)cc2)=NO1)(C(=O)NO)S(C)(=O)=O` [Compound 50, (R)—N-hydroxy-3-((R)-3-(4′-(2-hydroxyethoxy)-[1,1′-biphenyl]-4-yl)-4,5-dihydroisoxazol-5-yl)-2-methyl-2-(methylsulfonyl)]: the pIC50 on P. aeruginosa LpxC is 9.15. Besides, the minimum inhibitory concentration (MIC) in the test with P. aeruginosa PAO1 amounted to 0.18 mg/L (≈ 0.389 µM).

As for `COCC(C)(O)c1ccc(-c2ccc(C3=NO[C@@H](C[C@](C)(C(=O)NO)S(C)(=O)=O)C3)cc2)cc1` (stereo partly drawn) [Compound 51, (2R)—N-hydroxy-3-((5R)-3-(4′-(2-hydroxy-1-methoxypropan-2-yl)-[1,1′-biphenyl]-4-yl)-4,5-dihydroisoxazol-5-yl)-2-methyl-2-(methylsulfonyl)propanamide], on P. aeruginosa LpxC, the pIC50 was 9.10. Also, the MIC in the test on P. aeruginosa PAO1 is 1.4 mg/L (≈ 2.85 µM).

Regarding `COCC1CC(C#Cc2ccc(C3=NO[C@@H](C[C@](C)(C(=O)NO)S(C)(=O)=O)C3)cc2)C1` (stereo partly drawn) [Compound 52, (R)—N-hydroxy-3-((R)-3-(4-((3-(methoxymethyl)cyclobutyl)ethynyl)phenyl)-4,5-dihydroisoxazol-5-yl)-2-methyl-2-(methylsulfonyl)propanamide], the negative logarithm of the IC50 (pIC50) at P. aeruginosa LpxC is 9.10. In addition, in the test with P. aeruginosa PAO1, the minimum inhibitory concentration (MIC) stood at 1 mg/L (≈ 2.23 µM).

Regarding `COCC1CC(C#Cc2ccc(C3=NO[C@@H](C[C@](C)(C(=O)NO)S(C)(=O)=O)C3)cc2)C1` (stereo partly drawn) [Compound 53, (R)—N-hydroxy-3-((R)-3-(4-((3-(methoxymethyl)cyclobutyl)ethynyl)phenyl)-4,5-dihydroisoxazol-5-yl)-2-methyl-2-(methylsulfonyl)propanamide], the pIC50 at P. aeruginosa LpxC is 9.30. The “PAO1 MIC” value in the test with P. aeruginosa PAO1 stood at 0.5 mg/L.

For `C[C@@](C[C@H]1CC(c2ccc(C#CC3CC(F)C3)cc2)=NO1)(C(=O)NO)S(C)(=O)=O` (stereo partly drawn) [Compound 54, (R)-3-((R)-3-(4-((3-fluorocyclobutyl)ethynyl)phenyl)-4,5-dihydroisoxazol-5-yl)-N-hydroxy-2-methyl-2-(methylsulfonyl) propanamide], on P. aeruginosa LpxC, the negative-log IC50 (pIC50) was 9.15. Besides, the MIC in the test with P. aeruginosa PAO1 stood at 1 mg/L (≈ 2.37 µM).

In the case of `C[C@@](C[C@H]1CC(c2ccc(C#CC3CC(CC#N)C3)cc2)=NO1)(C(=O)NO)S(C)(=O)=O` (stereo partly drawn) [Compound 55, (R)-3-((R)-3-(4-((3-(cyanomethyl)cyclobutyl)ethynyl)phenyl)-4,5-dihydroisoxazol-5-yl)-N-hydroxy-2-methyl-2-(methylsulfonyl)propanamide], the pIC50 on P. aeruginosa LpxC is above 9.30. The minimal inhibitory concentration (MIC) in the test with P. aeruginosa PAO1 amounted to 0.5 mg/L (≈ 1.13 µM).

`C[C@H](O)c1ccc(-c2ccc(C3=NO[C@@H](C[C@](C)(C(=O)NO)S(C)(=O)=O)C3)cc2)cc1` [Compound 56, (R)—N-hydroxy-3-((R)-3-(4′-((S)-1-hydroxyethyl)-[1,1′-biphenyl]-4-yl)-4,5-dihydroisoxazol-5-yl)-2-methyl-2-(methylsulfonyl)]: the pIC50 on P. aeruginosa LpxC is 9.00. Besides, the minimum inhibitory concentration (MIC) with P. aeruginosa PAO1 was 0.25 mg/L (≈ 0.56 µM).

Consider `C[C@@](C[C@H]1CC(c2ccc(-c3cccc(CO)c3)cc2)=NO1)(C(=O)NO)S(C)(=O)=O` [Compound 57, (R)—N-hydroxy-3-((R)-3-(3′-(hydroxymethyl)-[1,1′-biphenyl]-4-yl)-4,5-dihydroisoxazol-5-yl)-2-methyl-2-(methylsulfonyl)], for which the negative-log IC50 (pIC50) on P. aeruginosa LpxC is above 9.30. For the same molecule, in the test with P. aeruginosa PAO1, the MIC was found to be 1 mg/L (≈ 2.31 µM).

For the molecule `C[C@@](C[C@H]1CC(c2ccc(-c3ccc(S(C)(=O)=O)cc3)cc2)=NO1)(C(=O)NO)S(C)(=O)=O` [Compound 58, (R)—N-hydroxy-2-methyl-2-(methylsulfonyl)-3-((R)-3-(4′-(methylsulfonyl)-[1,1-biphenyl]-4-yl)-4,5-dihydroisoxazol-5-yl)], at P. aeruginosa LpxC, the negative logarithm of the IC50 (pIC50) is above 9.30. Moreover, the MIC with P. aeruginosa PAO1 was determined as 0.5 mg/L (≈ 1.04 µM).

Turning to `COc1ccc(-c2ccc(C3=NO[C@@H](C[C@](C)(C(=O)NO)S(C)(=O)=O)C3)cc2)c(F)c1` [Compound 59, (R)-3-((R)-3-(2′-fluoro-4′-methoxy-[1,1′-biphenyl]-4-yl)-4,5-dihydroisoxazol-5-yl)-N-hydroxy-2-methyl-2-(methylsulfonyl)], on P. aeruginosa LpxC, the negative logarithm of the IC50 (pIC50) was above 9.30. In addition, the minimum inhibitory concentration (MIC) in the test on P. aeruginosa PAO1 was determined as 0.35 mg/L (≈ 0.777 µM).

In the case of `COC[C@H](O)Cc1ccc(-c2ccc(C3=NO[C@@H](C[C@](C)(C(=O)NO)S(C)(=O)=O)C3)cc2)cc1` [Compound 60, (R)—N-hydroxy-3-((R)-3-(4′-((R)-2-hydroxy-3-methoxypropyl)-[1,1′-biphenyl]-4-yl)-4,5-dihydroisoxazol-5-yl)-2-methyl-2-(methylsulfonyl)propanamide], the pIC50 at P. aeruginosa LpxC was above 9.30. The MIC in the test with P. aeruginosa PAO1 amounted to 0.25 mg/L (≈ 0.51 µM).

On to `CCC#Cc1ccc(C2=NO[C@@H](C[C@](C)(C(=O)NO)S(C)(=O)=O)C2)cc1` [Compound 62, (R)-3-((R)-3-(4-(but-1-yn-1-yl)phenyl)-4,5-dihydroisoxazol-5-yl)-N-hydroxy-2-methyl-2-(methylsulfonyl)propanamide], for which the pIC50 on P. aeruginosa LpxC is above 9.30. Moreover, in the test on P. aeruginosa PAO1, the MIC turned out to be 0.33 mg/L (≈ 0.872 µM).

`C[C@@](C[C@H]1CC(c2ccc(-c3ccc(C(F)(F)F)nc3)cc2)=NO1)(C(=O)NO)S(C)(=O)=O` [Compound 64, (R)—N-hydroxy-2-methyl-2-(methylsulfonyl)-3-((R)-3-(4-(6-(trifluoromethyl)pyridin-3-yl)phenyl)-4,5-dihydroisoxazol-5-yl)propanamide]: the pIC50 at P. aeruginosa LpxC is above 9.30. Besides, the MIC in the test with P. aeruginosa PAO1 turned out to be 0.25 mg/L (≈ 0.53 µM).

As to `C[C@@](C[C@H]1CC(c2ccc(-c3ccc(CO)nc3)cc2)=NO1)(C(=O)NO)S(C)(=O)=O` [Compound 65, (R)—N-hydroxy-3-((R)-3-(4-(6-(hydroxymethyl)pyridin-3-yl)phenyl)-4,5-dihydroisoxazol-5-yl)-2-methyl-2-(methylsulfonyl)propanamide], the negative logarithm of the IC50 (pIC50) at P. aeruginosa LpxC is above 9.30. Also, the MIC with P. aeruginosa PAO1 turned out to be 1 mg/L (≈ 2.31 µM).

On to `COc1ccc(-c2ccc(C3=NO[C@@H](C[C@](C)(C(=O)NO)S(C)(=O)=O)C3)cc2)cn1` [Compound 66, (R)—N-hydroxy-3-((R)-3-(4-(6-methoxypyridin-3-yl)phenyl)-4,5-dihydroisoxazol-5-yl)-2-methyl-2-(methylsulfonyl)propanamide], for which, at P. aeruginosa LpxC, the pIC50 is above 9.30. In addition, the MIC in the test with P. aeruginosa PAO1 worked out at 0.25 mg/L (≈ 0.577 µM).

What is called pIC50 is the negative decadic logarithm of the IC50, by convention in mol/L. In general, MIC refers to the lowest concentration found to suppress growth.
